“Also recorded” adds a separate entry of the source.
What was measured:
[1] = system: mice with experimental autoimmune encephalomyelitis; test: Experimental autoimmune encephalomyelitis (EAE) in mice; type: in vivo; conditions: for Paralysis / paralytic disease in EAE: paraparetic mice with EAE
Experimental: Paraparetic mice with experimental autoimmune encephalomyelitis were administered one dose of monodansyl cadaverine. […] Thus, diseases mediated in part by transglutaminase can be treated with transglutaminase inhibitors.
0.05 mM monodansyl cadaverine was injected intraperitoneally into one of two groups of mice. The injection was given on day 13 after induction of disease, marked in the FIG. by an arrow.
To obtain the data shown in FIG. 6, experimental autoimmune encephalitis (EAE) was induced in ten week old SJL female mice. EAE was induced by an injection of 4 mg of mouse spinal cord homogenate in 1 ml of CFA. The injections were given intradermally in three places (two places in the flanks and one in the neck). On the same day, day 1, and on day 2, an intraperitoneal injection of pertussis toxin was given. The mice were treated with different concentrations of mono dansyl cadaverine on day 10. One group was injected twice on days 7 and 10 with […] mono dansyl cadaverine.
The grading score for EAE is 0, normal; 1, mild paraparesis; 2, paraparesis; 3, severe paraparesis; 4, quadriparesis; 5, dead.

transglutaminase (TGase) = test: TGase assay on human brain extracts ([3H]putrescine incorporation into casein); type: biochemical; conditions: for TGase Activity + Casein + MDC / TGase Activity − Casein + MDC: 5 mM mono dansyl cadaverine, mean ± SEM, n = 2; for TGase Activity − Casein + MDC: no casein
Experimental: Each assay contained 80 μg of brain extract, 4 mg/ml N,N-dimethylated casein, 50 mM Tris (pH 8.0), 5 mM CaCl2, 5 mM dithiothreitol (DTT), and 0.37 mM putrescine (1:5, ^3 [H]putrescine:putrescine) in 80 μL. The reaction was incubated at 37° C. for 30 minutes. After it was washed in 500 μL of 10% trichloro acetic acid (TCA) and washed again in 100% ethanol, the reaction was resuspended in 220 μL of 0.1 M NaOH. The resuspended pellet was added to 10 ml of scintillation liquid. […] For lymphoid cells, 10^6 cells were suspended in 0.5 ml buffer for five minutes, then centrifuged at 1200×g for ten minutes.
Approximately 500 mg of brain tissue was homogenized in 2 ml of 10 mM Hepes (pH 7.4) containing 150 mM NaCl, 0.2 mg/ml leupeptin, 0.2 mg/ml aprotinin, 0.2 mg/ml pepstatin, and 0.5 mM phenylmethylsulfonyl fluoride (PMSF). The homogenate was centrifuged at 4° C. for ten minutes at 1000×g, and the supernatant was then centrifuged at 4° C. for ten minutes at 10,000×g to separate the cytoplasmic proteins. The remaining nuclear pellet was washed twice, for ten minutes each time, with the homogenization buffer at 4° C. at 1000×g, and then suspended in 1 ml of 10 mM Tris-Cl, 140 mM NaCl, 3 mM MgCl2, 0.5 mM PMSF, 0.1% sodium dodecyl sulfate (SDS), and 1% Nonylphenyl-polyethylene glycol (Nonidet P-40) (pH 7.4). The homogenate was spun at 4° C. for ten minutes at 8000×g. This procedure increased the level of beta-demn, a protein found more frequently in the cytoplasm than in the nucleus, enriching it 15.5-fold in the cytoplasm relative to the nucleus (Zhao et al, 1998).
This method for measuring brain transglutaminase was adapted from Folk and Cole (Folk et al, 1966). Casein serves as an excellent glutamine-containing protein substrate and […], while putrescine serves as the attacking nucleophile (Cooper et al, 1997). In the Huntington's Disease brain, in both the affected cortex andjin relatively unaffected areas like the cerebellum, which are affected in juvenile Huntington's Disease, transglutaminase activity was greater than in the corresponding areas of the control brain (HD cortex 14888±2864 cpm vs. normal cortex 6697±1410 cpm, mean ±1SEM, p<0.009 for HD cortex versus normal cortex; HD cerebellum 11221±2426 cpm vs. control cerebellum 2606±719 cpm, mean ±1SEM, p<0.001 for HD cerebellum versus control cerebellum.) Transglutaminase activity was also greater in extracts of nuclei from brains of Huntington's Disease patients than controls (HD brain cortical nuclear extract 6368±764 cpm vs. control brain cortical nuclear extract 2357±226 cpm, mean ±1SEM, Table 1).

[2] = biological target: T1, httQ67 (135 amino acids), P42858
T1 chain: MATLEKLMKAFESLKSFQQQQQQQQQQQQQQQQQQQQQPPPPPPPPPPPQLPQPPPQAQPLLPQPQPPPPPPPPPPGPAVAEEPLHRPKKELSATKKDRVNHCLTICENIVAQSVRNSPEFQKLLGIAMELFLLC

[3] = biological target: T2, httQ23 (310 amino acids), P42858
T2 chain: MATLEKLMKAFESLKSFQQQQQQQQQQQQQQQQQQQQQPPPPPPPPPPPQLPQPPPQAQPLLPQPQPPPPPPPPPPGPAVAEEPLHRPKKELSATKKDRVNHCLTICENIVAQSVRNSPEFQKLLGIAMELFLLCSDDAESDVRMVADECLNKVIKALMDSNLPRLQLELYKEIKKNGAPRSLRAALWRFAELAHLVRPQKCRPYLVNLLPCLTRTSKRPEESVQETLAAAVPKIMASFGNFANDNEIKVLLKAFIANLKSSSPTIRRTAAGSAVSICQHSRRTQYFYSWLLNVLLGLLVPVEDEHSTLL

[4] = biological target: T3, httQ41 (330 amino acids), P42858
T3 chain: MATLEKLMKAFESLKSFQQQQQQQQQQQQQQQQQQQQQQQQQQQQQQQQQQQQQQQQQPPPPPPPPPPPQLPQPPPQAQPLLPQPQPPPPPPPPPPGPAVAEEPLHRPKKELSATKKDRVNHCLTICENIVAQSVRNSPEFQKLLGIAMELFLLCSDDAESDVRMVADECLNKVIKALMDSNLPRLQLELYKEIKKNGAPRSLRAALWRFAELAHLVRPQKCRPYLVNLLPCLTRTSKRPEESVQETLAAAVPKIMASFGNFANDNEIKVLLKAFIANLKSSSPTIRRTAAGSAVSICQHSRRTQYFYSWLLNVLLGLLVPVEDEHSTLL

[5] = biological target: T4, httQ23 (90 amino acids), P42858
T4 chain: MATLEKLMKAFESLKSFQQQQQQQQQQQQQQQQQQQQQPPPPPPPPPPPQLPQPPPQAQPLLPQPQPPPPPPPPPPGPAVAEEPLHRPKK

[6] = biological target: T5, httQ41 (100 amino acids; elsewhere given as 110 amino acids), P42858
T5 chain: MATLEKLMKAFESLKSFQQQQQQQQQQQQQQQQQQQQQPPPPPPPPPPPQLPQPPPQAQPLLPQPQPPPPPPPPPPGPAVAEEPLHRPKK

CN(C)c1cccc2c(S(=O)(=O)NCCCCCN)cccc12 [monodansyl cadaverine]
Effect on EAE (FIG. 5), p compared to control ([1]; 0.05 mM injected intraperitoneally on day 13 after induction, following the second day of injection): significant influence (p=0.03 compared to control) | Mononuclear cell infiltration in brains by hematoxilin-eosin staining ([1]; FIG. 5 experiment, versus vehicle-injected controls): high levels of infiltration | Side effects ([1]; mice treated in vivo): no untoward side effects | Lymphocytic infiltration / accumulation of inflammatory lymphocytes in brain ([1]; mice with EAE, histology): prevented the accumulation of inflammatory lymphocytes in the brain; also recorded: reversed | Paralysis / paralytic disease in EAE [1]: reversed paralytic disease; also recorded: Ongoing paralysis was reversed | Disease status after treatment ([1]; paraparetic mice with EAE treated in vivo): apparently free of disease; also recorded: free of disease after treatment | Paralysis / paralytic disease in EAE ([1]; listed as monodensyl cadaverine): can reverse ongoing paralysis | TGase Activity + Casein + MDC (transglutaminase (TGase); Control Cerebellum extract): 83 ± 14 CPM | TGase Activity − Casein + MDC (transglutaminase (TGase); Control Cerebellum extract): 117 ± 30 CPM | TGase Activity + Casein + MDC (transglutaminase (TGase); Control Cortex extract): 63 ± 10 CPM | TGase Activity − Casein + MDC (transglutaminase (TGase); Control Cortex extract): 151 ± 39 CPM | TGase Activity + Casein + MDC (transglutaminase (TGase); HD Cerebellum extract): 186 ± 57 CPM | TGase Activity − Casein + MDC (transglutaminase (TGase); HD Cerebellum extract): 58 ± 13 CPM | TGase Activity + Casein + MDC (transglutaminase (TGase); HD Cortex extract): 94 ± 18 CPM | TGase Activity − Casein + MDC (transglutaminase (TGase); HD Cortex extract): 81 ± 17 CPM | Inhibition of enzymatic (transglutaminase) activity of brain extract (transglutaminase (TGase); cytosolic extract from HD and control brain, putrescine incorporation into casein): completely inhibited

B1: guinea pig liver TGase (Sigma) (protein)
chain: AEDLILERCDLQLEVNGRDHRTADLCRERLVLRRGQPFWLTLHFEGRGYEAGVDTLTFNAVTGPDPSEEAGTMARFSLSSAVEGGTWSASAVDQQDSTVSLLLSTPADAPIGLYRLSLEASTGYQGSSFVLGHFILLYNPRCPADAVYMDSDQERQEYVLTQQGFIYQGSAKFINGIPWNFGQFEDGILDICLMLLDTNPKFLKNAGQDCSRRSRPVYVGRVVSAMVNCNDDQGVLQGRWDNNYSDGVSPMSWIGSVDILRRWKDYGCQRVKYGQCWVFAAVACTVLRCLGIPTRVVTNFNSAHDQNSNLLIEYFRNESGEIEGNKSEMIWNFHCWVESWMTRPDLEPGYEGWQALDPTPQEKSEGTYCCGPVPVRAIKEGHLNVKYDAPFVFAEVNADVVNWIRQKDGSLRKSINHLVVGLKISTKSVGRDEREDITHTYKYPEGSEEEREAFVRANHLNKLATKEEAQEETGVAMRIRVGQNMTMGSDFDIFAYITNGTAESHECQLLLCARIVSYNGVLGPVCSTNDLLNLTLDPFSENSIPLHILYEKYGDYLTESNLIKVRGLLIEPAANSYVLAERDIYLENPEIKIRVLGEPKQNRKLIAEVSLKNPLPVPLLGCIFTVEGAGLTKDQKSVEVPDPVEAGEQAKVRVDLLPTEVGLHKLVVNFECDKLKAVKGYRNVIIGPA
aggregation into a high molecular weight polymer (35S gel) [2]: upon addition of transglutaminase, httQ23 (90 amino acids), httQ41 (100 amino acids), and httQ67 (135 amino acids) all aggregate into a high molecular weight polymer within 30 minutes | amount of aggregation compared to httQ23 (densitometry) [2]: 2-3 fold greater amount of aggregation of httQ41 and httQ67 compared to httQ23 at each concentration of transglutaminase | aggregation into a high molecular weight polymer (35S gel) [3]: upon addition of transglutaminase, both httQ23 (310 amino acids) and httQ41 (330 amino acids) aggregate into a high molecular weight polymer within 30 minutes | aggregation into a high molecular weight polymer (35S gel) [4]: upon addition of transglutaminase, both httQ23 (310 amino acids) and httQ41 (330 amino acids) aggregate into a high molecular weight polymer within 30 minutes | aggregation into a high molecular weight polymer (35S gel) [5]: upon addition of transglutaminase, httQ23 (90 amino acids), httQ41 (100 amino acids), and httQ67 (135 amino acids) all aggregate into a high molecular weight polymer within 30 minutes | aggregation into a high molecular weight polymer (35S gel) [6]: upon addition of transglutaminase, httQ23 (90 amino acids), httQ41 (100 amino acids), and httQ67 (135 amino acids) all aggregate into a high molecular weight polymer within 30 minutes | amount of aggregation compared to httQ23 (densitometry) [6]: 2-3 fold greater amount of aggregation of httQ41 and httQ67 compared to httQ23 at each concentration of transglutaminase

— US6794414B1, “Method and compositions for treating diseases mediated by transglutaminase activity” (Yeda Research and Development Co. Ltd., priority 1998, dated 2004)
